# PMC8286840, “Identifying SARS-CoV-2 antiviral compounds by screening for small molecule inhibitors of Nsp3 papain-like protease” (Biochemical Journal, 2021)
# Structures can show the parent of a compound that is named as a salt. Where two headings read alike, the source gives them in different places.
# Legend:
# [1] = target: T1, SARS-CoV-2 PLpro (nsp3 1564–1878) (Severe acute respiratory syndrome coronavirus 2, UniProt P0DTD1); experiment: biochemical; parameters: FRET-quenched peptide (Pro3) cleavage by PLpro, 10 min pre-incubation, slope over 20 min, normalised to no-compound control; conditions: high concentration screen, read-out: % of control remaining
# [2] = target: T1, SARS-CoV-2 PLpro (nsp3 1564–1878); experiment: biochemical; parameters: FRET-quenched peptide (Pro3) cleavage by PLpro, 10 min pre-incubation, slope over 20 min, normalised to no-compound control; conditions: low concentration screen, read-out: % of control remaining
compound,measurement,setting,value
NCC#Cc1ccccc1 [3-Phenylpropargylamine hydrochloride],remaining activity at 3.75 µM,[1]; Well no.=1405,101%
same,remaining activity at 1.25 µM,[2]; Well no.=1405,103%
O=C(NC[C@H]1CN(c2ccc(N3CCOCC3=O)cc2)C(=O)O1)c1ccc(Cl)s1 [Rivaroxaban],remaining activity at 3.75 µM,[1]; Well no.=8390,88.4%
same,remaining activity at 1.25 µM,[2]; Well no.=8390,93.8%
C[C@@]1(F)[C@H](O)[C@@H](CO)O[C@H]1n1ccc(N)nc1=O [PSI-6130],remaining activity at 3.75 µM,[1]; Well no.=7764,100%
same,remaining activity at 1.25 µM,[2]; Well no.=7764,107%
COc1ccc2[nH]c([S+]([O-])Cc3ncc(C)c(OC)c3C)nc2c1 (centres unmarked) [Omeprazole],remaining activity at 3.75 µM,[1]; Well no.=2051,101%
same,remaining activity at 1.25 µM,[2]; Well no.=2051,101%
COc1ccc2c(c[n+](C)c3c4cc5c(cc4ccc23)OCO5)c1OC [Chelerythrine],remaining activity at 3.75 µM,[1]; Well no.=3533,101%
same,remaining activity at 1.25 µM,[2]; Well no.=3533,102%
O=C(NCC1CCOCC1)c1cnc(Nc2ccc(Cl)cc2Cl)nc1C(F)(F)F [GW842166X],remaining activity at 3.75 µM,[1]; Well no.=5085,100%
same,remaining activity at 1.25 µM,[2]; Well no.=5085,97.9%
O=C1NC(=O)/C(=C/c2cccc(C(F)(F)F)c2)S1 [SMI-4a],remaining activity at 3.75 µM,[1]; Well no.=4788,101%
same,remaining activity at 1.25 µM,[2]; Well no.=4788,104%
N/C(=N\C(=O)c1nc(Cl)c(N)nc1N)NCc1ccccc1 [Benzamil],remaining activity at 3.75 µM,[1]; Well no.=2050,104%
same,remaining activity at 1.25 µM,[2]; Well no.=2050,104%
CN1CCN(C(=O)c2cc3cc(Cl)ccc3[nH]2)CC1 [JNJ-7777120],remaining activity at 3.75 µM,[1]; Well no.=5217,104%
same,remaining activity at 3.75 µM,[1]; Well no.=6949,96%
same,remaining activity at 1.25 µM,[2]; Well no.=5217,101%
same,remaining activity at 1.25 µM,[2]; Well no.=6949,103%
CCC(C)(C)c1ccc(CC(C)CN2C[C@@H](C)O[C@@H](C)C2)cc1 (some centres unmarked) [Amorolfine HCl],remaining activity at 3.75 µM,[1]; Well no.=5337,98.1%
same,remaining activity at 1.25 µM,[2]; Well no.=5337,98.1%
CN(C)CCN1C(=O)c2cccc3cc(N)cc(c23)C1=O [Amonafide],remaining activity at 3.75 µM,[1]; Well no.=5195,96.7%
same,remaining activity at 1.25 µM,[2]; Well no.=5195,96.9%
CN(C)c1ccc(-c2nc3ncc(Cl)c(N4CCN(CC(=O)Nc5nccs5)CC4)c3[nH]2)cc1 [CCT129202],remaining activity at 3.75 µM,[1]; Well no.=5253,93.9%
same,remaining activity at 1.25 µM,[2]; Well no.=5253,88.1%
O=c1[nH]c(=O)n([C@H]2C[C@H](O)[C@@H](CO)O2)cc1Br [5-Bromo-2'-deoxyuridine],remaining activity at 3.75 µM,[1]; Well no.=269,98.4%
same,remaining activity at 1.25 µM,[2]; Well no.=269,95.6%
N#CCNC(=O)c1ccc(-c2ccnc(Nc3ccc(N4CCOCC4)cc3)n2)cc1 [CYT11387],remaining activity at 3.75 µM,[1]; Well no.=2753,99.6%
same,remaining activity at 1.25 µM,[2]; Well no.=2753,98.6%
O=C(O[C@@H]1C[C@@H]2C[C@H]3C[C@H](C1)N2CC3=O)c1c[nH]c2ccccc12 [Dolasetron],remaining activity at 3.75 µM,[1]; Well no.=1870,96.3%
same,remaining activity at 3.75 µM,[1]; Well no.=6235,105%
same,remaining activity at 1.25 µM,[2]; Well no.=1870,96.1%
same,remaining activity at 1.25 µM,[2]; Well no.=6235,106%
NC1(Cc2ccc(Cl)cc2)CCN(c2ncnc3[nH]ccc23)CC1 [CCT128930],remaining activity at 3.75 µM,[1]; Well no.=5302,95.6%
same,remaining activity at 1.25 µM,[2]; Well no.=5302,97.5%
COc1cc(C=C(C#N)C#N)cc(O)c1O [Tyrphostin AG 34],remaining activity at 3.75 µM,[1]; Well no.=1387,101%
same,remaining activity at 1.25 µM,[2]; Well no.=1387,102%
CCN1CCC[C@H]1CNC(=O)c1cc(S(N)(=O)=O)ccc1OC [(S)-(-)-Sulpiride],remaining activity at 3.75 µM,[1]; Well no.=1636,103%
same,remaining activity at 1.25 µM,[2]; Well no.=1636,98.3%
CC[C@H](C)[C@H](N)C(=O)N1CCC[C@H]1C(=O)N[C@H](C(=O)O)[C@@H](C)CC [Diprotin A (TFA)],remaining activity at 3.75 µM,[1]; Well no.=8464,101%
same,remaining activity at 1.25 µM,[2]; Well no.=8464,104%
NC(CO)C(=O)NNCc1ccc(O)c(O)c1O (centres unmarked) [Benserazide hydrochloride],remaining activity at 3.75 µM,[1]; Well no.=367,96.5%
same,remaining activity at 1.25 µM,[2]; Well no.=367,96.9%
Cc1cc(C)c2c(c1)[C@@H](N(Cc1cc(C(F)(F)F)cc(C(F)(F)F)c1)c1nnn(C)n1)CCCN2C[C@H]1CC[C@H](C(=O)O)CC1 [Evacetrapib (LY2484595)],remaining activity at 3.75 µM,[1]; Well no.=5320,100%
same,remaining activity at 1.25 µM,[2]; Well no.=5320,96.7%
CN(C)Cc1c(C(=O)NCCOc2ccc(C(=O)NO)cc2)oc2ccccc12 [PCI-24781],remaining activity at 3.75 µM,[1]; Well no.=4840,100%
same,remaining activity at 1.25 µM,[2]; Well no.=4840,101%
Cc1ccc(-c2ncc(Cl)cc2-c2ccc(S(C)(=O)=O)cc2)cn1 [Etoricoxib],remaining activity at 3.75 µM,[1]; Well no.=1925,106%
same,remaining activity at 1.25 µM,[2]; Well no.=1925,106%
